Measured values from ChEMBL document CHEMBL1155218, “Carbonic anhydrase inhibitors. Comparison of aliphatic sulfamate/bis-sulfamate adducts with isozymes II and IX as a platform for designing tight-binding, more isoform-selective inhibitors” (J Med Chem, 2009).

Experiments:
[1] = molecular target: Carbonic anhydrase 13 (Mus musculus, UniProt Q9D6N1)
[2] = molecular target: Carbonic anhydrase 3 (Homo sapiens, UniProt P07451)
[3] = molecular target: Carbonic anhydrase 5A, mitochondrial (Homo sapiens, UniProt P35218)
Chain of Carbonic anhydrase 5A, mitochondrial (P35218 whole entry): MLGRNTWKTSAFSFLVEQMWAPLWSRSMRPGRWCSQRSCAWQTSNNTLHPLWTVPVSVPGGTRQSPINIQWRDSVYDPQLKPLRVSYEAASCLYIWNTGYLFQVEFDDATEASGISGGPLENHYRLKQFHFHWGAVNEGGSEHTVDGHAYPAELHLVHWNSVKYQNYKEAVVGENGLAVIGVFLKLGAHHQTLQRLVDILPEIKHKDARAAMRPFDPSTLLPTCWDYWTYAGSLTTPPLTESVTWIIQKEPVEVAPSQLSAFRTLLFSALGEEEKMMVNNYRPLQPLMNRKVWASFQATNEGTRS

[4] = molecular target: Carbonic anhydrase 12 (Homo sapiens, UniProt O43570)
Chain of Carbonic anhydrase 12 (O43570 whole entry): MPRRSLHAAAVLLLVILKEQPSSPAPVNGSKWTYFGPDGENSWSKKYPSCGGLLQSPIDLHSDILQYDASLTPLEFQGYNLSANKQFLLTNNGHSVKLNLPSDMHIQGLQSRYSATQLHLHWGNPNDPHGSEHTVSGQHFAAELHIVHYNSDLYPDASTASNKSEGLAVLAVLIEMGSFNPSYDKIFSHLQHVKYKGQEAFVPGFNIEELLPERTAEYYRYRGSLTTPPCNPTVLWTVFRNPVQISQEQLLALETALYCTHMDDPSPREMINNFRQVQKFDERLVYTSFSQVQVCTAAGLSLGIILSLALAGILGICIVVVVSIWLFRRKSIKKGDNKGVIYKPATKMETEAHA

[5] = molecular target: Carbonic anhydrase 14 (Homo sapiens, UniProt Q9ULX7)
Chain of Carbonic anhydrase 14 (Q9ULX7 whole entry): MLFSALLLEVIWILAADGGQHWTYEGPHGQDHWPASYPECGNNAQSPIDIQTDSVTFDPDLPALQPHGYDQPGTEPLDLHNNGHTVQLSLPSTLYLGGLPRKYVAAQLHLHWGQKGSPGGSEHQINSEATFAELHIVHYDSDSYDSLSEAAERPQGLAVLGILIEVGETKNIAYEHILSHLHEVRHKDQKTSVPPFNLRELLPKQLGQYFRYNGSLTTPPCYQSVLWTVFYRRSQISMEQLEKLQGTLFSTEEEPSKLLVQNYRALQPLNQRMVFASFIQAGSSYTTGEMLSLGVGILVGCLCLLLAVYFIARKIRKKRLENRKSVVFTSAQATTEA

[6] = molecular target: Carbonic anhydrase 5B, mitochondrial (Homo sapiens, UniProt Q9Y2D0)
Chain of Carbonic anhydrase 5B, mitochondrial (Q9Y2D0 whole entry): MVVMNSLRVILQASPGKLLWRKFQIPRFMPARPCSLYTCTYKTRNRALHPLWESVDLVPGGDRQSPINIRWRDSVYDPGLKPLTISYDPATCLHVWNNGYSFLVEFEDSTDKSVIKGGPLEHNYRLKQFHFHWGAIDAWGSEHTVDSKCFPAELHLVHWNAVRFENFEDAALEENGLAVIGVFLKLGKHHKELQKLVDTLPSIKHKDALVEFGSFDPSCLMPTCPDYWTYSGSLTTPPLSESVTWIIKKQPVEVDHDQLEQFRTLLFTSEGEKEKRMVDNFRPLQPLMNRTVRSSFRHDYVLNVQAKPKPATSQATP

[7] = molecular target: Carbonic anhydrase 6 (Homo sapiens, UniProt P23280)
Chain of Carbonic anhydrase 6 (P23280 whole entry): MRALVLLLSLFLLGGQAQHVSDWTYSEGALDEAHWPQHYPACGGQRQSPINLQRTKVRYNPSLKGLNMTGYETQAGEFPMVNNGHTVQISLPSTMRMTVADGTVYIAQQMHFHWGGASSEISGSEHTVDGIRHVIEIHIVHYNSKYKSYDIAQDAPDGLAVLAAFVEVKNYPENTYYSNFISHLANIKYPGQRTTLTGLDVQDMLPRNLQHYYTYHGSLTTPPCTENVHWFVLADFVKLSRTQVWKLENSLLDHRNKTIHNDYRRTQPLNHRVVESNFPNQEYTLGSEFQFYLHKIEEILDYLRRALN

[8] = molecular target: Carbonic anhydrase 7 (Homo sapiens, UniProt P43166)
Chain of Carbonic anhydrase 7 (P43166 whole entry): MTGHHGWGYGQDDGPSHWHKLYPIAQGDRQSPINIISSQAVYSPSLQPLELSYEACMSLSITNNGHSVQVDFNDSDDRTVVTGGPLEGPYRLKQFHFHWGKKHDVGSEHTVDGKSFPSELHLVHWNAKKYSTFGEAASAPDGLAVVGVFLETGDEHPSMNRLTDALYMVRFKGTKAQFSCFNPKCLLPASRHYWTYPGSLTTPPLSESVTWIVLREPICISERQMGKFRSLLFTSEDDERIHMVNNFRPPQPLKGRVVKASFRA

Chain of Carbonic anhydrase 13 (Q9D6N1 whole entry): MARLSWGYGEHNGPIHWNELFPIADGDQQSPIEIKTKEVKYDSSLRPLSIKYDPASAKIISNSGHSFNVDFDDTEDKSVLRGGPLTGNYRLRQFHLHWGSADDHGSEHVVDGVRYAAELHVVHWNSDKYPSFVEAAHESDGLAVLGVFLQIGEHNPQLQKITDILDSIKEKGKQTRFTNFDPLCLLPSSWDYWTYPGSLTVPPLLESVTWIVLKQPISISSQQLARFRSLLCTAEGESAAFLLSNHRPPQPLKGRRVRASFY
Chain of Carbonic anhydrase 3 (P07451 whole entry): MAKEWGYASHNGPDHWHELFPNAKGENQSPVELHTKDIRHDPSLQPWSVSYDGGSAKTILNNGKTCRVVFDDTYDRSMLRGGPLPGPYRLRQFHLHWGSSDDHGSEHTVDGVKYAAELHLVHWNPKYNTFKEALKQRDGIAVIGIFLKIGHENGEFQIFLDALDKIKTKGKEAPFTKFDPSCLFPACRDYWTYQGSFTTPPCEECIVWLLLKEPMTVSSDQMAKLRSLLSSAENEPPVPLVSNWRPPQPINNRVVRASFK

Row | Compound | Ki [1] | Ki [2] | Ki [3] | Ki [4] | Ki [5] | Ki [6] | Ki [7] | Ki [8]
1 | NS(=O)(=O)OCCCCCCCCCCOS(N)(=O)=O | 960 nM |  |  |  |  |  |  | 
2 | NS(=O)(=O)OCCCCCCCCOS(N)(=O)=O | 569 nM | 1130 nM | 1200 nM | 7.9 nM | 605 nM | 1460 nM | 1020 nM | 
3 | CCCCCCCCCCOS(N)(=O)=O [DECYL SULFAMATE] | 956 nM |  |  |  |  |  |  | 
4 | CCCCCCCCOS(N)(=O)=O [OCTYL SULFAMATE] | 1130 nM | 9100 nM | 1250 nM | 7 nM | 390 nM | 624 nM | 795 nM | 76.6 nM
